Measured values as given in patent publication US8324264B1, “Inhibitors of bacterial biofilms and related methods” (Sequoia Sciences, Inc., priority 2011, dated 2012).
≈ marks a conversion by molar mass, not a printed value. Where two headings read alike, the source gives them in different places.

What was measured:
P. aeruginosa biofilms = test: Biofilm growth assay (spreading biofilm on semi-solid agar), P. aeruginosa; format: cell-based; set-up: P. aeruginosa (n = 10) inhibitory concentration in the biofilm growth assay: unit: ug/mL; details: for P. aeruginosa (n = 10) inhibitory concentration in the biofilm growth assay: Table 6, n = 10 isolates; for IC85: Pseudomonas aeruginosa, read-out: P. aeruginosa: concentration that reduces the area of the spreading biofilm by greater than or equal to 85%
Summary of the method: (§1)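 Values are compound concentrations (μg/ml) that cut the spreading-biofilm zone area by ≥85% relative to negative controls after overnight 37 °C growth from 5 μL central inoculum. E. coli plates: LB, 0.6% agar, 0.5% glucose; P. aeruginosa plates: M8 agar plus 0.2% glucose, 100 μM CaCl2, 1 mM MgSO4, 0.5% Casamino acids.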

Salmonella spp. = test: Biofilm growth assay, Salmonella spp.; format: cell-based; details: Table 6, n = 6 isolates; Nutrient Broth, 0.5% glucose, 0.5% Noble agar
Description: The biofilm growth assay was carried out to measure swarming or biofilm spreading on semi-solid agar media in round plates (for example, 100×15 mm), also referred to as Petri dishes. For E. coli, the plates contained LB medium with 0.6% agar and 0.5% glucose. P. aeruginosa plates were made with M8 agar supplemented with 0.2% glucose, 100 μM CaCl2, 1 mM MgSO4, and 0.5% Casamino acids. The agar plates of this assay consisted of 0.4% to 0.7% agar (Bacto or Noble agar), although other media may also be used as described in the literature and known to those skilled in the art. Test compounds at the desired concentration were added to the cooled, autoclaved media. Portions of the media were then poured into the plates (20 mL/plate), and the plates allowed to dry at room temperature for approximately 3 to 4 hours. Alternatively, however, plates may be dried in a laminar flow hood for approximately fifteen to twenty minutes. Overnight cultures were grown in a 37° C. shaker in LB (E. coli) or TSB (P. aeruginosa). Plates were inoculated by placing 5 μL of the appropriate overnight culture in the centers of the plates. The plates then were incubated overnight at 37° C. The area of the zone of spreading bacteria was then measured and replicates are averaged. Percent inhibition was calculated as 100×(area without compound−area with compound)/(area without compound). An active compound was considered that which reduces the area of the spreading biofilm compared to negative controls by greater than or equal to 85%. The values shown in Table 1 are the concentrations of compounds (μg/ml) tested in the biofilm growth assay that reduce the area of the spreading biofilm compared to negative controls by greater than or equal to 85% unless noted differently in Table 1. A > (“greater than” symbol) as used in Table 1 is well understood to those skilled in the art as an indication that the listed concentration was not effective at this concentration.
(§2) Table 6, below, lists the inhibitory concentrations of select compounds and antibiotics in the biofilm growth assay against various gram-negative bacterial biofilms. “N” means the number of isolates of bacteria tested. The biofilm growth assay procedure detailed in Example I, above, was followed. Burkholderia cepacia used media consisting of M9 salts, 100 μM CaCl2, 1 mM MgSO4, and 0.7% citrate in 0.4% Noble agar. Salmonella spp. used media consisting of Nutrient Broth with 0.5% glucose in 0.5% Noble agar.

B. cepacia = test: Biofilm growth assay, Burkholderia cepacia; format: cell-based; details: Table 6, n = 10 isolates; M9 salts, 0.7% citrate, 0.4% Noble agar
Description: The biofilm growth assay was carried out to measure swarming or biofilm spreading on semi-solid agar media in round plates (for example, 100×15 mm), also referred to as Petri dishes. For E. coli, the plates contained LB medium with 0.6% agar and 0.5% glucose. P. aeruginosa plates were made with M8 agar supplemented with 0.2% glucose, 100 μM CaCl2, 1 mM MgSO4, and 0.5% Casamino acids. The agar plates of this assay consisted of 0.4% to 0.7% agar (Bacto or Noble agar), although other media may also be used as described in the literature and known to those skilled in the art. Test compounds at the desired concentration were added to the cooled, autoclaved media. Portions of the media were then poured into the plates (20 mL/plate), and the plates allowed to dry at room temperature for approximately 3 to 4 hours. Alternatively, however, plates may be dried in a laminar flow hood for approximately fifteen to twenty minutes. Overnight cultures were grown in a 37° C. shaker in LB (E. coli) or TSB (P. aeruginosa). Plates were inoculated by placing 5 μL of the appropriate overnight culture in the centers of the plates. The plates then were incubated overnight at 37° C. The area of the zone of spreading bacteria was then measured and replicates are averaged. Percent inhibition was calculated as 100×(area without compound−area with compound)/(area without compound). […] A > (“greater than” symbol) as used in Table 1 is well understood to those skilled in the art as an indication that the listed concentration was not effective at this concentration.
as §2

E. coli biofilms = test: Biofilm growth assay (spreading biofilm on semi-solid agar), E. coli; format: cell-based; set-up: E. coli (n = 10) inhibitory concentration in the biofilm growth assay: unit: ug/mL; details: for E. coli (n = 10) inhibitory concentration in the biofilm growth assay: Table 6, n = 10 isolates; for IC85: Escherichia coli, read-out: E. coli: concentration that reduces the area of the spreading biofilm by greater than or equal to 85%
Summary of the method: as §1

Evaluation of salts = format: physicochemical
Description: Evaluation of Compound 62 (Table 4) salt formation was performed. […] As stated herein, the invention also includes compounds and their salts. Evaluation of Compound 64 (Table 4) salt formation was performed. HCl (mono and bis), p-TSA (bis), BSA (bis), MSA (bis), H2SO4 (mono), and H3PO4 (mono) provided salts with crystallinity. […] As stated herein, the invention also includes compounds and their salts.

[1] = biofilm growth assay, overnight 37° C., vs negative controls, Tables 1-5

| SMILES | IC85 (P. aeruginosa biofilms; [1]) | IC85 (E. coli biofilms; [1]) | melting point | further results |
| --- | --- | --- | --- | --- |
| CC[C@H]1OC(=O)[C@H](C)[C@@H](O[C@H]2C[C@@](C)(OC)[C@@H](O)[C@H](C)O2)[C@H](C)[C@@H](O[C@@H]2O[C@H](C)C[C@H](N(C)C)[C@H]2O)[C@](C)(O)C[C@@H](C)CN(C)[C@H](C)[C@@H](O)[C@]1(C)O [Azithromycin, azithromycin] | – | – | – | P. aeruginosa (n = 10) inhibitory concentration in the biofilm growth assay (P. aeruginosa biofilms): >16; Salmonella spp. (n = 6) inhibitory concentration in the biofilm growth assay (Salmonella spp.): >16; B. cepacia (n = 10) inhibitory concentration in the biofilm growth assay (B. cepacia): >16 |
| CC(C)(O/N=C(\C(=O)N[C@@H]1C(=O)N2C(C(=O)[O-])=C(C[n+]3ccccc3)CS[C@H]12)c1csc(N)n1)C(=O)O [Ceftazidime, ceftazidime, reference compound] | – | – | – | P. aeruginosa (n = 10) inhibitory concentration in the biofilm growth assay (P. aeruginosa biofilms): 4; E. coli (n = 10) inhibitory concentration in the biofilm growth assay (E. coli biofilms): 0.25; Salmonella spp. (n = 6) inhibitory concentration in the biofilm growth assay (Salmonella spp.): 0.5; B. cepacia (n = 10) inhibitory concentration in the biofilm growth assay (B. cepacia): >8 |
| CN(C)C[C@]12CCC(C)(C)C[C@H]1C1=CC[C@@H]3[C@@]4(C)Cc5c(n[nH]c5N)C(C)(C)[C@@H]4CC[C@@]3(C)[C@]1(C)CC2 [Compound 64] | 0.5 µg/mL (≈ 0.987 µM) | 1 µg/mL (≈ 1.97 µM) | – | aqueous solubility of salts compared to freebase (Evaluation of salts; Bis-MSA and mono-H3PO4 salts): increased aqueous solubility |
| CC1(C)CC[C@]2(C(=O)Nc3nnn[nH]3)CC[C@]3(C)C(=CCC4[C@@]5(C)Cc6c(n[nH]c6N)C(C)(C)C5CC[C@]43C)C2C1 (stereo partly drawn) [Compound 61, (4aS,6aS,6bR,13aR)-12-Amino-2,2,6a,6b,9,9,13a-heptamethyl-N-(1H-tetrazol-5-yl)-2,3,4,4a,5,6,6a,6b,7,8,8a,9,11,13,13a,13b,14,15b-octadecahydro-1H-chryseno[1,2-f]indazole-4-a-carboxamide] | – | – | > 300 °C | IC85 (P. aeruginosa biofilms): 0.5 µg/mL (≈ 0.892 µM); IC85 (E. coli biofilms): 0.5 µg/mL (≈ 0.892 µM) |
| CC1(C)CC[C@]2(c3n[nH]c(O)c3CCNC(N)=O)CC[C@]3(C)C(=CCC4[C@@]5(C)Cc6c(n[nH]c6N)C(C)(C)C5CC[C@]43C)C2C1 (stereo partly drawn) [Compound 87, 1-(2-(3-((4aS,6aS,6bR,13aR)-12-Amino-2,2,6a,6b,9,9,13a-heptamethyl-2,3,4,4a,5,6,6a,6b,7,8,8a,9,11,13,13a,13b,14,15b-octadecahydro-1H-chryseno[1,2-f]indazol-4-a-yl)-5-hydroxy-1H-pyrazol-4-yl)ethyl)urea] | 0.5 µg/mL (≈ 0.809 µM) | 1 µg/mL (≈ 1.62 µM) | > 300 °C | – |
| NC[C@H]1O[C@H](O[C@H]2[C@H](O)[C@@H](O[C@H]3O[C@H](CO)[C@@H](O)[C@H](N)[C@H]3O)[C@H](N)C[C@@H]2N)[C@H](N)C[C@@H]1O [Tobramycin, tobramcyin, reference compound] | – | – | – | P. aeruginosa (n = 10) inhibitory concentration in the biofilm growth assay (P. aeruginosa biofilms): 4; E. coli (n = 10) inhibitory concentration in the biofilm growth assay (E. coli biofilms): 16; Salmonella spp. (n = 6) inhibitory concentration in the biofilm growth assay (Salmonella spp.): 8; B. cepacia (n = 10) inhibitory concentration in the biofilm growth assay (B. cepacia): >64 |
| CC1(C)CC[C@]2(C(=O)O)CC[C@]3(C)C(=C(c4cccnc4)CC4[C@@]5(C)Cc6c(n[nH]c6N)C(C)(C)[C@@H]5CC[C@]43C)[C@@H]2C1 (stereo partly drawn) [Example 12, (4aS,6aS,6bR,8aR,13aR,15bS)-12-Amino-2,2,6a,6b,9,9,13a-heptamethyl-15-(pyridin-3-yl)-2,3,4,4a,5,6,6a,6b,7,8,8a,9,11,13,13a,13b,14,15b-octadecahydro-1H-chryseno[1,2-f]indazole-4-a-carboxylic acid] | 0.5 µg/mL (≈ 0.876 µM) | 1 µg/mL (≈ 1.75 µM) | > 300 °C | – |
| C=CC1=C2[C@@H]3CC(C)(C)CC[C@]3(C(=O)O)CC[C@@]2(C)[C@]2(C)CC[C@H]3C(C)(C)c4n[nH]c(N)c4C[C@]3(C)C2C1 (stereo partly drawn) [Example 13, (4aS,6aS,6bR,8aR,13aR,15bS)-12-Amino-2,2,6a,6b,9,9,13a-heptamethyl-15-vinyl-2,3,4,4a,5,6,6a,6b,7,8,8a,9,11,13,13a,13b,14,15b-octadecahydro-1H-chryseno[1,2-f]indazole-4-a-carboxylic acid] | 0.5 µg/mL (≈ 0.962 µM) | 1 µg/mL (≈ 1.92 µM) | > 300 °C | – |
| CC1(C)CC[C@]2(C(N)=O)CC[C@]3(C)C(=CCC4[C@@]5(C)Cc6c(n[nH]c6N)C(C)(C)[C@@H]5CC[C@]43C)[C@@H]2C1 (stereo partly drawn) [Compound 62, (4aS,6aS,6bR,13aR)-12-Amino-2,2,6a,6b,9,9,13a-heptamethyl-2,3,4,4a,5,6,6a,6b,7,8,8a,9,11,13,13a,13b,14,15b-octadecahydro-1H-chryseno[1,2-f]indazole-4-a-carboxamide] | 1 µg/mL (≈ 2.03 µM) | 1 µg/mL (≈ 2.03 µM) | – | physical properties of salts compared to freebase (Evaluation of salts; p-toluenesulfonic acid (mono) and H3PO4 (bis) salts): most desirable physical properties |
| CC1(C)CC[C@]2(C(=O)Nc3cc(S)n[nH]3)CC[C@]3(C)C(=CCC4[C@@]5(C)Cc6c(n[nH]c6N)C(C)(C)C5CC[C@]43C)C2C1 (stereo partly drawn) [Compound 79, (4aS,6aS,6bR,13aR)-12-Amino-N-(3-mercapto-1H-pyrazol-5-yl)-2,2,6a,6b,9,9,13a-heptamethyl-2,3,4,4a,5,6,6a,6b,7,8,8a,9,11,13,13a,13b,14,15b-octadecahydro-1H-chryseno[1,2-f]indazole-4-a-carboxamide] | 0.25 µg/mL (≈ 0.423 µM) | 0.5 µg/mL (≈ 0.846 µM) | > 300 °C | – |
| CC1(C)CC[C@]2(C(=O)O)CC[C@]3(C)C(=C(c4c[nH]c5ccccc45)CC4[C@@]5(C)Cc6c(n[nH]c6N)C(C)(C)[C@@H]5CC[C@]43C)[C@@H]2C1 (stereo partly drawn) [Example 8, (4aS,6aS,6bR,8aR,13aR,15bS)-12-Amino-15-(1H-indol-3-yl)-2,2,6a,6b,9,9,13a-heptamethyl-2,3,4,4a,5,6,6a,6b,7,8,8a,9,11,13,13a,13b,14,15b-octadecahydro-1H-chryseno[1,2-f]indazole-4-a-carboxylic acid] | 0.25 µg/mL (≈ 0.411 µM) | 1 µg/mL (≈ 1.64 µM) | > 300 °C (dec.) | – |
| C/C=C/C1=C2[C@@H]3CC(C)(C)CC[C@]3(C(=O)O)CC[C@@]2(C)[C@]2(C)CC[C@H]3C(C)(C)c4n[nH]c(N)c4C[C@]3(C)C2C1 (stereo partly drawn) [Example 5, (4aS,6aS,6bR,8aR,13aR,15bS)-12-Amino-2,2,6a,6b,9,9,13a-heptamethyl-15-((E)-prop-1-enyl)-2,3,4,4a,5,6,6a,6b,7,8,8a,9,11,13,13a,13b,14,15b-octadecahydro-1H-chryseno[1,2-f]indazole-4-a-carboxylic acid] | 0.5 µg/mL (≈ 0.937 µM) | 1 µg/mL (≈ 1.87 µM) | > 300 °C | – |
